The structures appear in SMILES notation. Values after ≈ are worked out from the molar mass of the structure shown. Values joined by “and” are separate entries in the source; they are usually repeats but may differ in a detail not shown here. Equal entries are not always repeated.

Data set [1] is described as follows: physchem.
The next data set can be described thus: isoelectric point (pI). It is filed as physicochemical.
Another data set concerns glutathione levels. Briefly: utilization of GGC in mice: glutathione levels. It is filed as in vivo. Particulars: preliminary studies. An excerpt:
The final form of GGC, whether it be in the reduced state as γ-glutamylcysteine or in the disulphide form as bis-γ-glutamylcystine, is dependent on the final application of the dipeptide. […] The oxidised form bis-γ-glutamylcystine is more likely to be suitable for application as a nutraceutical supplement as no special precautions to prevent the oxidation of the sulphydryl, would be required, whereas application in the treatment of poisoning or as an antioxidant in food or cosmetics would require the reducing power of the sulphydryl of γ-glutamylcysteine. Whatever the desired form, both are relatively easily interconverted by reduction which can be achieved either chemically (Jocelyn, P. C., Chemical reduction of disulfides. Methods in Enzymology, 1987. 143: p. 246-56), electrochemically (Genders, J. D., N. L. Weinberg, and D. J. Mazur, High yield methods for electrochemical preparation of cysteine and analogues. 1988, U.S. Pat. No. 5,106,463. The Electrosynthesis Company, Inc.) or oxidized to the disulphide form simply by exposing a solution to air (oxygen) with a trace amount of copper or iron salt added to catalyse the reaction.

The nature of data set [2]: stability on removal of water by evaporation. It is filed as physicochemical. Particulars: temperatures above 40° C. As to the method: Example 13 describes purification of GGC from a mixture comprising GGC and 2-mercaptoethanol, with subsequent freeze-drying. However, it is not expected that freeze drying would be an economic option at industrial scale. Removal of water by conventional evaporation at temperatures above 40° C. results in degradation of the product. However, a process of concentration by nanofiltration is expected to be most suitable at industrial scale as it is both low temperature and a cost effective method for water removal. […] After the removal of the majority of water by nanofiltration and a pH adjustment to the pH of the isoelectric point (GGC=pH 2.8) the addition of an antisolvent such as ethanol or acetone can be added to initiate spontaneous crystallization. The final product can be collected by filtration and dried under reduced pressure.

Data set [3] in a line: physchem. The conditions noted are these: pH 9.1, aqueous with cosolvent or surfactant or cyclodextrin, thermodynamic from solid.

Regarding `COC(=O)[C@@H](N)CSSC[C@H](N)C(=O)OC.Cl.Cl` [CDME, cystine dimethyl ester dihydrochloride], the solubility – broadly, the dissolved amount per volume that the medium holds – in “physchem [1]” was more than 20000 µg/mL.
For `N[C@@H](CSSCCO)C(=O)O` [Cys-Merc, cysteine-mercaptoethanol mixed disulphide], the “isoelectric point (pI)” value in “isoelectric point (pI)” is 5.2 and 5.3. Moreover, the aqueous solubility (commonly the dissolved amount per volume that the medium holds) in “aqueous solubility” is approximately 20000 µg/mL (≈ 101 mM).
`CCOC(=O)CC[C@H](N)C(=O)O` [GEE, glutamic acid γ-ethyl ester]: the “isoelectric point (pI)” value in “isoelectric point (pI)” is reported as 5.8.
Regarding `N[C@@H](CCC(=O)N[C@@H](CS)C(=O)O)C(=O)O` [GGC, γ-Glutamylcysteine], the “isoelectric point (pI)” value in “isoelectric point (pI)” is listed as 2.8. Moreover, the “glutathione levels after administration” value in the data set with glutathione levels was “significantly increase glutathione levels”. In addition, the “stability on conventional evaporation of water” value in data set [2] is recorded as “degradation”.
For `N[C@@H](CCC(=O)NC(CSSCCO)C(=O)O)C(=O)O` (stereo partly shown) [GGC-Merc, γ-glutamylcysteine-mercaptoethanol disulphide], the “isoelectric point (pI)” value in the data set “isoelectric point (pI)” stood at 3.0.
`N[C@@H](CCC(=O)Nc1ccc([N+](=O)[O-])cc1)C(=O)O` [GPNA, L-γ-glutamyl-p-nitroanilide] came in with a solubility limit in “aqueous solubility” (pH 8.5 in 100 mM phosphate buffer) of 8.4 mM (≈ 2240 µg/mL).
In turn, `CC(=O)NCSC[C@H](N)C(=O)O` [S-acetamidomethylcysteine] returned a solubility in “aqueous solubility” (water) of 2000 mM.
On to `N[C@@H](CCC(=O)N[C@@H](CSSC[C@H](NC(=O)CC[C@H](N)C(=O)O)C(=O)O)C(=O)O)C(=O)O` [bis-γ-glutamylcystine], for which, in the data set on glutathione levels, the “glutathione levels after administration” value is listed as “significantly increase glutathione levels”.
Turning to `N[C@@H](CSSC[C@H](N)C(=O)O)C(=O)O` [cystine], the solubility in the data set “physchem [3]” (50% DMF in diethanolamine (DEA) buffer) is approximately 30 mM; in the data set “physchem [3]” (50% DMF in water) it was approximately 9000 µg/mL; in the data set “aqueous solubility” (aqueous solution, pH 3, aqueous buffer) it was 100 µg/mL; in “aqueous solubility” (phosphate buffer, pH 8.5, aqueous buffer), 16.6 mM; in “aqueous solubility” (water, 37 °C, pH 9.1, water), approximately 5000 µg/mL.

(Values after patent US8236533B2, “Process for the production of γ-glutamylcysteine” (NewSouth Innovations PTY Limited, priority 2005, dated 2012).)
